Laboratory results as given in patent US7741286B2, “Long lasting anti-angiogenic peptides” (ConjuChem Biotechnologies Inc., priority 1999, dated 2010).

Test: Peptide stability assay: stability of K5 in human plasma (HPLC/MS of free intact peptide)
Type: in vitro ADME
Design: remaining at 4 h / remaining at 24 h: dose or concentration left out as unconfirmed
Settings: for % K5 peptide in plasma: final concentration 160 mM K5
Procedure: K5 was prepared as a 1 μM solution and dissolved in 25% human serum albumin. The mixture was then incubated at 37° C. in the presence of human plasma to final concentration of […] K5. Aliquots of 100 μl were withdrawn from the plasma at 0, 4 hours and 24 hours. The 100 μl aliquots were mixed with 100 μl of blocking solution (5 vol. 5% ZnSO4/3 vol. Acetonitrile/2 vol. Methanol) in order to precipitate all proteins. The sample was centrifuged for 5 min at 10,000 g and the supernatant containing the peptide was recovered and filtered through a 0.22 μm filter. The presence of free intact K5 peptide was assayed by the HPLC/MS. The HPLC parameters for detection of K5 peptide in serum were as follows.
The HPLC method was as follows: A Vydac C18 250×4.6 mm, 5μ particle size column was utilized. The column temperature was 30° C. with a flow rate of 0.5 ml/min. Mobile Phase A was 0.1% TFA/water. Mobile Phase B was 0.1% TFA/acetonitrite. The injection volume was 10 μl.
The gradient was as follows: […]
The proteins were detected at 214, 254 and 334 nm. For mass spectral analysis, the ionization mode was API-electrospray (positive mode) at an M/Z range of 300 to 2000. The gain was 3.0, fragmentor 120 v, threshold 20, stepsize 0.1. The gas temp was 350° C. and the dying gas volume was 10.0 l/min. The Neb pressure was 24 psi and the Vcap was 3500V. The HPLC method was as follows: A Vydac C18 250×4.6 mm, 5μ particle size column was utilized. The column temperature was 30° C. with a flow rate of 0.5 ml/min. Mobile Phase A was 0.1% TFA/water. Mobile Phase B was 0.1% TFA/acetonitrite. The injection volume was 10 μl.
The proteins were detected at 214, 254 and 334 nm. For mass spectral analysis, the ionization mode was API-electrospray (positive mode) at an M/Z range of 300 to 2000. The gain was 3.0, fragmentor 120 v, threshold 20, stepsize 0.1. The gas temp was 350° C. and the drying gas volume was 10.0 l/min. The Neb pressure was 24 psi and the Vcap was 3500V.

% K5 peptide in plasma (0 hrs, 37° C. in human plasma): 100%
remaining at 4 h (4 hrs, 37° C. in human plasma): 9%
% K5 peptide in plasma (4 hrs, 37° C. in human plasma): 9%
remaining at 24 h (24 hrs, 37° C. in human plasma): 0%
stability of unmodified K5 peptide in serum/plasma (in words) (human plasma, 37° C.): quite unstable
Substance: H-PRKLYDK-NH2 [Example K5, Pro-Arg-Lys-Leu-Tyr-Asp-Lys-NH2]
